Measurements from ChEMBL document CHEMBL4138296, “Nonacidic Chemotype Possessing N-Acylated Piperidine Moiety as Potent Farnesoid X Receptor (FXR) Antagonists” (ACS Med Chem Lett, 2018).
Activity calls are given as the source filed them. The rule behind the calls is not given here.

What was measured:
Bile acid receptor [1] = molecular target: T1, Bile acid receptor (Homo sapiens, UniProt Q96RI1); assay: Antagonist activity at GST-tagged FXR LBD (unknown origin) assessed as inhibition of GW4064-induced fluorecein-labeled SRC2-2 coactivator recruitment by Lanthascreen TR-FRET assay
T1 sequence (Q96RI1 whole entry): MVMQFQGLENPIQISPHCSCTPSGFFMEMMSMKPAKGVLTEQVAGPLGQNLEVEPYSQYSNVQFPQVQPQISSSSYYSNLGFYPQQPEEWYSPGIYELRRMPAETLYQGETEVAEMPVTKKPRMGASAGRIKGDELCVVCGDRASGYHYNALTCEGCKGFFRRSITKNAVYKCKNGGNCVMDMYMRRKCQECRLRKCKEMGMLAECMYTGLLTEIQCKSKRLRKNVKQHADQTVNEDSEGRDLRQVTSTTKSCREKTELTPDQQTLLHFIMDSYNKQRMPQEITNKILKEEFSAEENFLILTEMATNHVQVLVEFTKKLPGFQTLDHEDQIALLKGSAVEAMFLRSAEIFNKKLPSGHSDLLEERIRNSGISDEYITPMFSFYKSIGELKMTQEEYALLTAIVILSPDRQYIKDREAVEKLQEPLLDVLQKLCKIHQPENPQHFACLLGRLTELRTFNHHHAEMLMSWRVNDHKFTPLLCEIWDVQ

Hep 3B2 = assay: Cytotoxicity against human Hep3B cells assessed as reduction in cell viability by MTT assay; assay type: functional, cell-based
[2] = molecular target: T2, Peroxisome proliferator-activated receptor alpha (Homo sapiens) (UniProt Q07869); assay: Antagonist activity at PPARalpha (unknown origin) assessed as inhibition of GW7647-induced response at 1 uM by luciferase reporter gene assay
T2 sequence (whole entry): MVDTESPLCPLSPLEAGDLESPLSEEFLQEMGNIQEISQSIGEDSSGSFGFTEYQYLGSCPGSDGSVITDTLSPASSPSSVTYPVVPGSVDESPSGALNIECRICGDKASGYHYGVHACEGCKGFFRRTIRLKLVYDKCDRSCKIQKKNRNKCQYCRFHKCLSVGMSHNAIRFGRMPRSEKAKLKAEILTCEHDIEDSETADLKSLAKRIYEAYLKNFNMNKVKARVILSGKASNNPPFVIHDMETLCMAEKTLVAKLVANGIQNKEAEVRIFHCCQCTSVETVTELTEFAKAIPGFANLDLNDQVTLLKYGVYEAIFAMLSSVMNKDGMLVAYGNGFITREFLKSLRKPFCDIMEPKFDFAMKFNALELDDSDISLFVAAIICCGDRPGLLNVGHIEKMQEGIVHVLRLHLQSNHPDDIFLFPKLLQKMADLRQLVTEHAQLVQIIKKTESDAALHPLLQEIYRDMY

[3] = molecular target: T3, Oxysterols receptor LXR-alpha (Homo sapiens) (UniProt Q13133); assay: Antagonist activity at LXRalpha (unknown origin) assessed as inhibition of TO901317-induced response at 1 uM by luciferase reporter gene assay
T3 sequence (whole entry): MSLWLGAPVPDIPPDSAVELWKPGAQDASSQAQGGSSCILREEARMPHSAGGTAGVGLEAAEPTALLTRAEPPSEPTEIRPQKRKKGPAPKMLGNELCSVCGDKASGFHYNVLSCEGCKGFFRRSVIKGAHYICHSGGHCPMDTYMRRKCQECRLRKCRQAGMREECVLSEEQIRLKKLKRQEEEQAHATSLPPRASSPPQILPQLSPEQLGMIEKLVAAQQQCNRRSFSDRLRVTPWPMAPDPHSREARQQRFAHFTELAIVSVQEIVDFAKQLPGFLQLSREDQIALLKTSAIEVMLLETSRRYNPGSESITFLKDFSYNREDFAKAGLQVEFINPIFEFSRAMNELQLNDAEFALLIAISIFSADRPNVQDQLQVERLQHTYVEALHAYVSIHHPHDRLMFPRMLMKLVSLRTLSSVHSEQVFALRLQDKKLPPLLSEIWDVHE

[4] = molecular target: T4, Vitamin D3 receptor (Homo sapiens) (UniProt P11473); assay: Agonist activity at human VDR expressed in HEK293T cells at 1 uM by luciferase reporter gene assay; assay type: cell-based
T4 sequence (whole entry): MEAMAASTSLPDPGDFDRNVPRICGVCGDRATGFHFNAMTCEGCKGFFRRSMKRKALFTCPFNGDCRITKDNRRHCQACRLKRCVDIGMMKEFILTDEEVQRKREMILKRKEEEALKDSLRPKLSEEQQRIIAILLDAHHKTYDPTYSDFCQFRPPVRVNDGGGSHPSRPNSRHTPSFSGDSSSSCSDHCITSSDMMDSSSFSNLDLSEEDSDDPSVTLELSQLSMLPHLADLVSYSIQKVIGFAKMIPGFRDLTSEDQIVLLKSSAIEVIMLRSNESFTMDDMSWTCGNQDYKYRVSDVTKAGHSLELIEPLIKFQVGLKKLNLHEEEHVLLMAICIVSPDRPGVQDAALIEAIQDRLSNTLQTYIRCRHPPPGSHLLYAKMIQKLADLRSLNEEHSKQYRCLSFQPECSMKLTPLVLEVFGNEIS

[5] = molecular target: T5, Oxysterols receptor LXR-beta (Homo sapiens) (UniProt P55055); assay: Agonist activity at LXRbeta (unknown origin) at 1 uM by luciferase reporter gene assay
T5 sequence (whole entry): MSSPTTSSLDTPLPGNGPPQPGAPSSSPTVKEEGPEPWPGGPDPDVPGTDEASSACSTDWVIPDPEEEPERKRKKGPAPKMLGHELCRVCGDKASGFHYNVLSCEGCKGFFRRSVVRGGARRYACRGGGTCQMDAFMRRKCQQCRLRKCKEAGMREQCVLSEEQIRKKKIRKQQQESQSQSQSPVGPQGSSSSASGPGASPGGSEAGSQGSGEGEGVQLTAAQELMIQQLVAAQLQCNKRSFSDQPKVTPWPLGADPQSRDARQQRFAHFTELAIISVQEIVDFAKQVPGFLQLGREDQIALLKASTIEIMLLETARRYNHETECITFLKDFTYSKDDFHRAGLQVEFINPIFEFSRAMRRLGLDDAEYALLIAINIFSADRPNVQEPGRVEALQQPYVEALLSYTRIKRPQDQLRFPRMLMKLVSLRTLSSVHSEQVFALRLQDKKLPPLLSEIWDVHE

Bile acid receptor [6] = molecular target: T1, Bile acid receptor; assay: Antagonist activity at FXR in human HepG2 cells assessed as inhibition of CYP3A4 mRNA expression level at 0.02 to 2 uM after 48 hrs by RT-PCR analysis; assay type: ADME, cell-based; details: hepg2, 48 h

IC50 (Bile acid receptor [1]): 0.035 µM
inhibition [2]: inactive
inhibition [3]: inactive
Activity [4]: inactive
Activity [5]: inactive
inhibition (INH) (Bile acid receptor [6]): Not Active
Compound: Cc1ccc2nc([C@H](CC3CCN(C(=O)C(C)C)CC3)N3C(=O)CN(c4ccc(Oc5ccccc5)cc4)C3=O)n(C)c2c1
IC50 (Hep 3B2): > 100 µM
